One series can be described thus: physchem. Type of series: physicochemical. To be noted: pH 7.5. The text has this: Assay (III): ThT Fibrillation Assay for the Assessment of Physical Stability of Peptide Compositions The purpose of this assay is to assess the physical stability of the glucagon derivatives of the invention in aqueous solutions. Low physical stability of a peptide may lead to amyloid fibril formation, which is observed as well-ordered, thread-like macromolecular structures in the sample, which eventually may lead to gel formation. This has traditionally been measured by visual inspection of the sample. However, that kind of measurement is very cumbersome and depending on the observer. Therefore, the application of a small molecule indicator probe is much more advantageous. Thioflavin T (ThT) is such a probe and has a distinct fluorescence signature when binding to fibrils [Naiki et al. (1989) Anal. Biochem. 177, 244-249; LeVine (1999) Methods. Enzymol. 309, 274-284]. Here, as depicted in FIG. 1, F is the ThT fluorescence at the time t. The constant t0 is the time needed to reach 50% of maximum fluorescence. The two important parameters describing fibril formation are the lag-time calculated by t0−2τ and the apparent rate constant kapp 1/τ. Samples were prepared freshly before each assay. Each sample composition is described in the legends. The pH of the sample was adjusted to the desired value using appropriate amounts of concentrated NaOH and HCl. Thioflavin T was added to the samples from a stock solution in H2O to a final concentration of 1 μM. Sample aliquots of 200 μl (250 μM of the glucagon derivative/analogue in 10 mM HEPES buffer, pH 7.5) were placed in a 96 well microtiter plate (Packard OptiPlate™-96, white polystyrene). Usually, four or eight replica of each sample (corresponding to one test condition) was placed in one column of wells. The plate was sealed with Scotch Pad (Qiagen). Incubation at given temperature, shaking and measurement of the ThT fluorescence emission were done in a Fluoroskan Ascent FL fluorescence platereader (Thermo Labsystems). The plate was incubated 37° C. with orbital shaking adjusted to 960 rpm with an amplitude of 1 mm. Fluorescence measurement was done using excitation through a 444 nm filter and measurement of emission through a 485 nm filter. Each run was initiated by incubating the plate at the assay temperature for 10 min. The plate was measured every 20 minutes for a desired period of time. Between each measurement, the plate was shaken and heated as described. After completion of the ThT assay the four or eight replica of each sample was pooled and centrifuged at 20000 rpm for 30 minutes at 18° C. The supernatant was filtered through a 0.22 μm filter and an aliquot was transferred to a HPLC vial. The concentration of peptide in the initial sample and in the filtered supernatant was determined by reverse phase HPLC using an appropriate standard as reference. The percentage fraction the concentration of the filtered sample constituted of the initial sample concentration was reported as the recovery. The measurement points were saved in Microsoft Excel format for further processing and curve drawing and fitting was performed using GraphPad Prism. The background emission from ThT in the absence of fibrils was negligible. The data points were typically a mean of four or eight samples and shown with standard deviation error bars. Only data obtained in the same experiment (i.e. samples on the same plate) were presented in the same graph ensuring a relative measure of fibrillation between experiments. The data set may be fitted to Eq. (1).

The target in the next series is T1, human glucagon receptor (Homo sapiens, UniProt P47871).
T1 construct: expressed in transfected cells; host or cells: BHK cells, clone BHK hGCGR A3*25; isolated membranes
As to the kind of experiment: Assay (I)(b): glucagon receptor activation, CRE luciferase reporter gene assay in BHK cells. Type of series: cell-based. To be noted: BHK cells expressing human glucagon receptor and CRE luciferase, 3 h incubation; read-out: EC50 hGlucagonR. The procedure:
The purpose of this assay is to test the activity, or potency, of the derivatives of the invention, in vitro. The in vitro potency is the measure of human GLP-1 receptor and/or glucagon receptor activation, respectively, in a whole cell assay.
In vitro potency was determined by measuring the response of human GLP-1 or glucagon receptor, respectively, in a reporter gene assay. The assay was performed in a stably transfected BHK cell line that expressed either the human GLP-1 receptor or the human glucagon receptor and contained the DNA for the cAMP response element (CRE) coupled to a promoter and the gene for firefly luciferase (CRE luciferase). […] When assay incubation was completed, the luciferase substrate (luciferin) was added and the enzyme converted luciferin to oxyluciferin and produced bioluminescence. The luminescence was measured as the readout for the assay.
(b) Glucagon Receptor Activation
The cells used in this assay (clone pLJ6′-4-25) were BHK cells with BHK570 as a parent cell line expressing the CRE luciferase gene (clone BHK/KZ10-20-48) and were established by further transfection with the human glucagon receptor (clone pLJ6′ in pHZ-1 vector).
The cells were cultured at 5% CO2 in DMEM medium with 10% FBS, 1× GlutaMAX, 1 mg/mL G418, 240 nM MTX (methotrexate) and 1% pen/strep (penicillin/streptomycin). They were aliquoted and stored in liquid nitrogen. Before each assay, an aliquot was taken up and washed three times in PBS before being suspended at the desired concentration in assay buffer. For 96-well plates the suspension was made to give a final concentration of 5×10 EE3 cells/well.
Assay Medium consisted of DMEM w/o phenol red, 10 mM Hepes, lx GlutaMAX, 2% Ovalbumin and 0.2% Pluronic F-68.
Cell stocks were thawed in a 37° C. water bath. Cells were washed three times in PBS. The cells were counted and adjusted to 5×10 EE3 cells/50 μl (1×10 EE5 cells/mL) in Assay Medium. A 50 μl aliquot of cells was transferred to each well in the assay plate.
Stocks of the test compounds and reference compounds were diluted to a concentration of […] in Assay Medium. Compounds were diluted 10-fold to give the following concentrations: […], 2×10 EE-7 M, 2×10 EE-8 M; 2×10 EE-9 M, 2×10 EE-10 M, 2×10 EE-11 M, 2×10 EE-12 M and 2×10 EE-13 M. For each compound a blank assay buffer control was also included.
A 50 μl aliquot of compound or blank was transferred from the dilution plate to the assay plate. Compounds were tested at the following final concentrations: 1×10 EE-6 M, 1×10 EE-7 M, 1×10 EE-8 M; 1×10 EE-9 M, 1×10 EE-10 M, 1×10 EE-11 M and 1×10 EE-12 M and 1×10 EE-13 M.
The assay plate was incubated for 3 h in a 5% CO2 incubator at 37° C. The assay plate was removed from the incubator and allowed to stand at room temperature for 15 min. A 100 μl aliquot of steadylite plus reagent was added to each well of the assay plate (reagent is light sensitive). Each assay plate was covered with aluminum foil to protect it from light and shaken for 30 min at room temperature. Each assay plate was read in a Packard TopCount NXT instrument.
The data from the TopCount instrument was transferred to GraphPad Prism software. The software performed a non-linear regression (log(agonist) vs response-Variable slope (four parameter)). EC50 values were calculated by the software and reported in pM.
For orientation: Reporter assays use an easily measured gene product as a stand-in for the process of interest.

*1 amine or outer side, *2 acyl side, *3 side chain or, on linkers, in order; H or OH if unused. Where a SMILES comes first, the peptide text is derived from it. Side-chain parts run from the residue outwards. The star is where a group is joined. γGlu = O=C(O)[C@H](CCC(=O)[*:2])N[*:1]; Desaminohistidyl = O=C(CCc1c[nH]cn1)*

T1 sequence (P47871 26-477): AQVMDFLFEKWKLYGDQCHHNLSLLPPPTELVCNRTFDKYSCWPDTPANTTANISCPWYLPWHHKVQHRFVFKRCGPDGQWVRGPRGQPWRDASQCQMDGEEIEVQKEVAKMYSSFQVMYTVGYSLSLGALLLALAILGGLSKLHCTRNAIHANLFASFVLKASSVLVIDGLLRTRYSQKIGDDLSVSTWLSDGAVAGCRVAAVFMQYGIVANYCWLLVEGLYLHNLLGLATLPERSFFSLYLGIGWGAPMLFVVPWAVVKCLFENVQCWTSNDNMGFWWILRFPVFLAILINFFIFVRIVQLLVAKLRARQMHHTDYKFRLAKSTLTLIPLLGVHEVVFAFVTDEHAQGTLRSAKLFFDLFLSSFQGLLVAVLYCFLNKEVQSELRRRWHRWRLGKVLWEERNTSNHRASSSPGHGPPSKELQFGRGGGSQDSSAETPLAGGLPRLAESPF

The compound `CC(=O)N[C@@H](CCC(=O)N[C@@H](CCC(=O)N[C@@H](CCC(=O)N[C@@H](CCC(=O)NCCCC[C@H](NC(=O)[C@H](CC(C)C)NC(=O)[C@H](CC(C)C)NC(=O)[C@H](Cc1c[nH]c2ccccc12)NC(=O)[C@H](CCC(N)=O)NC(=O)[C@@H](NC(=O)[C@H](Cc1ccccc1)NC(=O)[C@H](CCC(=O)O)NC(=O)[C@H](CCC(N)=O)NC(=O)[C@H](C)NC(=O)[C@H](CCCNC(=N)N)NC(=O)[C@H](CCCNC(=N)N)NC(=O)[C@H](CO)NC(=O)[C@H](CCC(=O)O)NC(=O)[C@H](CC(C)C)NC(=O)[C@H](Cc1ccc(O)cc1)NC(=O)[C@H](CCCCN)NC(=O)[C@H](CO)NC(=O)[C@H](Cc1ccc(O)cc1)NC(=O)[C@H](CC(=O)O)NC(=O)[C@H](CO)NC(=O)[C@@H](NC(=O)[C@H](Cc1ccccc1)NC(=O)[C@@H](NC(=O)CNC(=O)[C@H](Cc1c[nH]cn1)NC(=O)[C@H](CO)NC(=O)CCc1c[nH]cn1)[C@@H](C)O)[C@@H](C)O)C(C)C)C(=O)N[C@H](C(=O)O)[C@@H](C)O)C(=O)O)C(=O)O)C(=O)O)C(=O)O` [Example 14, N^ϵ28-[(4S)-4-[[(4S)-4-[[(4S)-4-[[(4S)-4-acetamido-4-carboxybutanoyl]amino]-4-carboxybutanoyl]amino]-4-carboxybutanoyl]amino]-4-carboxybutanoyl]-[Imp1, His3, Glu15, Glu21, Leu27, Lys28]-Glucagon] (Desaminohistidyl-SHGTFTSDYSKYLESRRAQEFVQWLLK([γGlu-γGlu-γGlu-γGlu-Ac])T-OH) gave a recovery at 250 μM in “physchem” of 98%. For the same compound, the EC50 at human glucagon receptor stood at 6 pM.

`CC(=O)N[C@@H](CCC(=O)N[C@@H](CCC(=O)N[C@@H](CCC(=O)N[C@@H](CCC(=O)NCCCC[C@H](NC(=O)[C@H](CO)NC(=O)[C@H](CC(C)C)NC(=O)[C@H](CC(C)C)NC(=O)[C@H](Cc1c[nH]c2ccccc12)NC(=O)[C@H](CCC(N)=O)NC(=O)[C@@H](NC(=O)[C@H](Cc1ccccc1)NC(=O)[C@H](CCC(=O)O)NC(=O)[C@H](CCC(N)=O)NC(=O)[C@H](C)NC(=O)[C@H](CCCNC(=N)N)NC(=O)[C@H](CCCNC(=N)N)NC(=O)[C@H](CO)NC(=O)[C@H](CCC(=O)O)NC(=O)[C@H](CC(C)C)NC(=O)[C@H](Cc1ccc(O)cc1)NC(=O)[C@H](CCCCN)NC(=O)[C@H](CO)NC(=O)[C@H](Cc1ccc(O)cc1)NC(=O)[C@H](CC(=O)O)NC(=O)[C@H](CO)NC(=O)[C@@H](NC(=O)[C@H](Cc1ccccc1)NC(=O)[C@@H](NC(=O)CNC(=O)[C@H](Cc1c[nH]cn1)NC(=O)[C@H](CO)NC(=O)CCc1c[nH]cn1)[C@@H](C)O)[C@@H](C)O)C(C)C)C(=O)O)C(=O)O)C(=O)O)C(=O)O)C(=O)O` [Example 15, N^ϵ29-[(4S)-4-[[(4S)-4-[[(4S)-4-[[(4S)-4-acetamido-4-carboxybutanoyl]amino]-4-carboxybutanoyl]amino]-4-carboxybutanoyl]amino]-4-carboxybutanoyl]-[Imp1, His3, Glu15, Glu21, Leu27, Ser28, Lys29]-Glucagon] (Desaminohistidyl-SHGTFTSDYSKYLESRRAQEFVQWLLSK([γGlu-γGlu-γGlu-γGlu-Ac])-OH) gave a recovery at 250 μM in “physchem” of 88%. For the same compound, the 50% effective concentration (EC50) at human glucagon receptor turned out to be 4 pM.

In the series “physchem”, `CC(=O)N[C@@H](CCC(=O)N[C@@H](CCC(=O)N[C@@H](CCC(=O)N[C@@H](CCC(=O)NCCCC[C@H](NC(=O)[C@@H](NC(=O)[C@H](CO)NC(=O)[C@H](CC(C)C)NC(=O)[C@H](CC(C)C)NC(=O)[C@H](Cc1c[nH]c2ccccc12)NC(=O)[C@H](CCC(N)=O)NC(=O)[C@@H](NC(=O)[C@H](Cc1ccccc1)NC(=O)[C@H](CCC(=O)O)NC(=O)[C@H](CCC(N)=O)NC(=O)[C@H](C)NC(=O)[C@H](CCCNC(=N)N)NC(=O)[C@H](CCCNC(=N)N)NC(=O)[C@H](CO)NC(=O)[C@H](CCC(=O)O)NC(=O)[C@H](CC(C)C)NC(=O)[C@H](Cc1ccc(O)cc1)NC(=O)[C@H](CCCCN)NC(=O)[C@H](CO)NC(=O)[C@H](Cc1ccc(O)cc1)NC(=O)[C@H](CC(=O)O)NC(=O)[C@H](CO)NC(=O)[C@@H](NC(=O)[C@H](Cc1ccccc1)NC(=O)[C@@H](NC(=O)CNC(=O)[C@H](Cc1c[nH]cn1)NC(=O)[C@H](CO)NC(=O)CCc1c[nH]cn1)[C@@H](C)O)[C@@H](C)O)C(C)C)[C@@H](C)O)C(=O)O)C(=O)O)C(=O)O)C(=O)O)C(=O)O` [Example 16, N^α([Imp1, His3, Glu15, Glu21, Leu27, Ser28]-Glucagonyl)-N{Epsilon}[(4S)-4-[[(4S)-4-[[(4S)-4-[[(4S)-4-acetamido-4-carboxybutanoyl]amino]-4-carboxybutanoyl]amino]-4-carboxybutanoyl]amino]-4-carboxybutanoyl]Lys] (Desaminohistidyl-SHGTFTSDYSKYLESRRAQEFVQWLLSTK([γGlu-γGlu-γGlu-γGlu-Ac])-OH) came in with a recovery at 250 μM of 61%. In addition, the EC50 on human glucagon receptor was 4 pM.

As a reminder, the EC50 is the concentration giving half of the maximal effect.

The values are drawn from US9963496B2, “Stable glucagon analogues and use for treatment of hypoglycaemia” (Novo Nordisk A/S, priority 2014, dated 2018).
